Assay results reported in patent publication US7456018B2, “Human hepatoma lines, methods for obtaining same and uses thereof” (priority 2001, dated 2008).
“Also recorded” adds a separate entry of the source.

What was measured:
HCV = experiment: Sensitivity of HCV replication in infected HepaRG cells to interferon α, viral RNA by RT-PCR; type: cell-based; conditions: 5 U.I./ml
Method: These cells are incubated for 48 hours at 37° C. with the infectious source, diluted 10 times, in the culture medium devoid of FCS and optionally with PEG 8000 (Sigma) added.
The replicative forms of the intracellular viral RNAs were isolated in all the cell lysates. The cells are recovered after separation with trypsin, then the total RNA is extracted using the High Pure RNA Isolation kit (Roche). The quantity of total RNA extracted is estimated by optical density in order to standardize the different samples. The quality and homogeneity of the RNAs are examined by visualizing the ribosomic RNAs (rRNA: 28S and 18S) on a 1% agarose gel stained with ethidium bromide.
The RNAs of the viral particles are extracted from the culture supernatant using the High Pure viral RNA kit (Roche).
By retrotranscription (RT), the complementary DNA (cDNA) of the viral RNAs of positive polarity is synthesized from a specific prime hybridizing at 5′ of the region which codes for the viral capsid protein. This oligonucleotide (5′-[…]-3′), designated as SEQ ID NO:1, derived from that described by Martell et al., 1999, Journal of Clinical Microbiology, 37: 327-332 , designated C-342. The cDNA is then amplified by the “Polymerase Chain Reaction” (PCR) technique using two primers hybridizing in the 5′ non-translated region of the viral genome. The primers used are as follows: the sense oligonucleotide (5′-TGAGTGTCGTRCAGCCTCC-3′), designated as SEQ ID NO:2, and the antisense oligonucleotide (5′-[…]-3′), designated as SEQ ID NO:3, which corresponds to that conceived by Mercier et al., 1999, Journal of Virological Methods, 77 1-9, designated NCR-3. The amplification product (amplicon of 190 pb) is visualized on a 2% agarose gel stained with ethidium bromide. A marker of molecular weight of DNA (M) is also deposited in order to verify the identity of the amplicon by its size. The effectiveness of the different stages is always controlled by detecting the viral RNA present in a standard (T+), which corresponds to a diluted serum, originating from an infected patient. […]

HBV [1] = experiment: Infectability of HepaRG cells by HBV according to culture/differentiation medium, HbsAg secretion; type: cell-based, hepatitis B virus
Method: The cells used for the infection are cells having been cultured according to the conditions defined in Example 1 (permanent presence of 5.10^−5M of hydrocortisone hemisuccinate) and having been maintained for a week at confluence, then for 2 weeks in the same medium with 2% of DMSO added.
These cells are incubated with the infectious source, diluted 10 times, in the culture medium with 4% of PEG 8000 (Sigma) added, for 20 hours at 37° C. The second part of this HBV infection protocol was established by Gripon et al., 1993, Virology, 192: 534-540.
At the end of the incubation, the cells are washed three times with culture medium and maintained in the presence of 2% of DMSO and 5.10^−5 M of hydrocortisone hemisuccinate until they are used.
The HBs antigen was detected in the medium using the ELISA kit (Monolisa AgHBs plus®) from Biorad Laboratories. The results are expressed in pg/ml of supernatant.
The ability of the HepaRG cells to be infected was studied as a function of their degree of differentiation. Using the methods described in Examples 1 and 2, the cell differentiation programme was modified.
A first series of infection was carried out on cells continually maintained in the presence of corticoid only, then in the presence of corticoid and different concentrations of DMSO, in order to induce different stages of differentiation.
This correlation was confirmed by a series of experiments carried out on cells infected at confluence (before their differentiation) then placed under optimum conditions in order to induce their differentiation.
Finally, the effectiveness of an infection carried out on undifferentiated cells multiplying actively was compared with that on cells with arrested growth and well-differentiated.

HepaRG cells [2] = experiment: Biliary/hepatocyte route differentiation of HepaRG cells, in situ marking (indirect immunohistochemistry); type: cell-based, human; design: Cytokeratin 19 expression: key: −/+: weakly positive; +: positive; ++: highly positive; conditions: HepaRG cells treated with 2% DMSO or 3.75 mM sodium butyrate; on Albumin expression: key: −/+: weakly positive; +: positive; ++: highly positive; on Cytokeratin 7 expression: key: −/+: weakly positive; +: positive; ++: highly positive; on α1 chain expression: key: −/+: weakly positive; +: positive; ++: highly positive; on α6 chain expression: key: −/+: weakly positive; +: positive; ++: highly positive; on γ-glutamyl transferase expression: key: −/+: weakly positive; +: positive; ++: highly positive
Method: HepaRG cells were separated, diluted to ⅕ in Williams' E medium to which 5 μg/ml of insulin, 100 U/ml of penicillin, 100 μg/ml of streptomycin, 510-5M of hydrocortisone hemisuccinate, 2 mM of L-glutamine and 10% FCS were added, then redistributed into wells with a plastic support. Four culture conditions were produced: • HepaRG cells were treated with 3.75 mM sodium butyrate in the maintenance medium as from the day following subculture according to the protocol described by Blouin et al. (1995, Specialization switch in differentiating embryonic rat liver progenitor cells in response to sodium butyrate, Exp. cell res., 217: 22-33). The medium is then replenished every 2-3 days, • the HepaRG cells were treated 5 days after subculture by 3.75 mM sodium butyrate or 2% DMSO. The medium was replenished every day for 5 days, • the HepaRG cells were treated at strong confluence by 3.75 mM sodium butyrate; the medium was replenished every 2-3 days, • the HepaRG cells were seeded on a plastic support or monolayer of rat primitive biliary epithelial cells in MEM alpha medium complemented with L-glutamine (2 mM), i-inositol (0.2 mM), folic acid ([…]), β-mercaptoethanol (10^−4 M), transferrin 200 μg/ml, 12.5% FCS and 12.5% horse serum. In certain situations, cytokines such as LIF, IL-3, SCF or G-CSF were added to the medium. This medium was replenished every 2-3 days. Indirect Immunohistochemistry
The cells after washing with PBS are fixed by a solution of 4% paraformaldehyde buffered by 0.1 M sodium cacodylate at pH 7.4 for 20 minutes at 4° C. They are then preserved in a PBS buffer until the time of the analysis.
The specific sites are saturated for 45 minutes with PBS containing 10% FCS. The samples are then treated with primary antibodies for an hour at ordinary temperature in PBS containing 0.05% saponin. After 3 washings in PBS containing 0.05% saponin, the samples are incubated with the second antibody coupled to peroxydase.
The morphological modifications observed in the presence of sodium butyrate are correlated to phenotypical changes (Blouin et al. 1995). We used four markers of differentiation towards the biliary route, γ-glutamyl transferase, the α6 chain of integrins and the cytokeratins 7 and 19 which normally disappear when the cells are directed towards the hepatocyte route. For differentiation towards the hepatocyte route, we looked for an increase in the expression of albumin and a reduction in the expression of the al chain of the integrins.

HepaRG cells [3] = experiment: Toxicity of DMSO to HepaRG cells without corticoid; type: cell-based, human; conditions: 2% of DMSO, HepaRG cells in the absence of corticoid
Method: A first series of experiments was carried out in order to study the effects of the absence of the corticoid on cells having always been maintained in its presence. In FIG. 9A, the HepaRG cells at passage 13, were kept for 2 additional passages either in the continuous presence of hydrocortisone (growth: HN), or in the absence of hydrocortisone (growth: HO). They were then induced to differentiate (diff.) for 3 weeks in the absence of hydrocortisone (HO) or in the presence of hydrocortisone 5×10^−5 M (HN), and in the presence of different concentrations of DMSO.
The withdrawal of the corticoid was carried out at confluence, i.e. at the time when the cells begin their differentiation.
The cells are kept in a culture medium without corticoid and their ability to carry out differentiation is tested after 2 (FIG. 9A) and 10 passages (FIG. 9B).

HBV [4] = experiment: Antiviral activity of 3TC on HBV-infected HepaRG cells, viral DNA by Amplicor-Monitor test; type: cell-based, hepatitis B virus; conditions: day 8 to 15 after infection, vs infected non-treated control
Method: (§1) The cells are maintained and infected according to the protocols of Examples 1 and 5.
[…] A complete replenishment of the medium is carried out every two days. The supernatants are stored at −20° C. and the cell pellets at −80° C.
The viral DNA present in the culture supernatant could be detected and quantified by the Amplicor-Monitor test (ROCHE). The results are expressed as number of viral particles/ml. For the analysis of intracellular viral DNA, the cells were separated with trypsin and stored at −80° C. The total DNA was isolated according to the protocol described previously (Zoulim et al., 1998, Drug therapy for chronic hepatitis B virus replication. J. Hepatol. 29:151-168).

HBV [5] = experiment: HBs antigen in culture supernatant of HBV-infected HepaRG cells treated by 3TC (ELISA); type: cell-based, hepatitis B virus; conditions: after 8 days of treatment by 3TC, all doses
Method: as §1
The antiviral treatment by 3TC is administered from the 8th day to the 15th day following the infection of the HepaRG cells, at final concentrations of 0.1 and 10 μM in the culture medium. A complete replenishment of the medium is carried out every two days. The supernatants are stored at −20° C. and the cell pellets at −80° C.
The viral antigen (HBs) was detected in the culture supernatant using the commercial ELISA test ETI-MAK-3® (SORIN).

interferon α: antiviral cytokine (Introna®, Schering-Plough, France)
Extracellular viral RNA, kinetics (HCV; after four days of incubation, Day 10 to Day 12): no extracellular viral RNA is detected
Viral RNA signal in the extracellular medium (HCV; six days of treatment, 12th day after infection): complete disappearance of the signal
Drop of the intracellular viral RNA signal (HCV; six days of treatment, 12th day after infection, serum No. 4): more than 60%

hydrocortisone hemisuccinate [HN]
HbsAg secretion (HBV [1]; culture HN, HN after 17th day, infection D3 (growth), 47 days after seeding): 33 pg/mL
HbsAg secretion (HBV [1]; culture HN, HN after 17th day, infection D5 (growth), 47 days after seeding): 37 pg/mL
HbsAg secretion (HBV [1]; culture HN, HN after 17th day, infection D10 (confluence), 47 days after seeding): 93 pg/mL
HbsAg secretion (HBV [1]; culture HN, HN with 2% of DMSO after 17th day, infection D3 (growth), 47 days after seeding): 41 pg/mL
HbsAg secretion (HBV [1]; culture HN, HN with 2% of DMSO after 17th day, infection D5 (growth), 47 days after seeding): 84 pg/mL
HbsAg secretion (HBV [1]; culture HN, HN with 2% of DMSO after 17th day, infection D10 (confluence), 47 days after seeding): 171 pg/mL

C[S+](C)[O-] [DMSO]
Albumin expression (HepaRG cells [2]): ++
α1 chain expression (HepaRG cells [2]): +
γ-glutamyl transferase expression (HepaRG cells [2]): −/+
HbsAg secretion (HBV [1]; DMSO 1% in differentiation medium after day 17, infection on day 15, supernatant 47 days after seeding): 70 pg/mL
HbsAg secretion (HBV [1]; DMSO 1% in differentiation medium after day 17, infection on day 28, supernatant 47 days after seeding): 214 pg/mL
HbsAg secretion (HBV [1]; DMSO 2% in differentiation medium after day 17, infection on day 15, supernatant 47 days after seeding): 79 pg/mL
HbsAg secretion (HBV [1]; DMSO 2% in differentiation medium after day 17, infection on day 28, supernatant 47 days after seeding): >2000 pg/mL
Toxicity of the addition of DMSO (HepaRG cells [3]): so toxic that its use is impossible; also recorded: highly toxic

CCCC(=O)[O-].[Na+] [Sodium butyrate, sodium butyrate]
Albumin expression (HepaRG cells [2]): −/+
Cytokeratin 7 expression (HepaRG cells [2]): +
Cytokeratin 19 expression (HepaRG cells [2]): ++
α1 chain expression (HepaRG cells [2]): −/+
α6 chain expression (HepaRG cells [2]): +
γ-glutamyl transferase expression (HepaRG cells [2]): ++

Nc1ccn([C@@H]2CS[C@H](CO)O2)c(=O)n1 [3TC]
Inhibition (quantity of viral DNA) (HBV [4]; 3TC 0.1 μM): 69
Inhibition (quantity of viral DNA) (HBV [4]; 3TC 1 μM): 98
Inhibition (quantity of viral DNA) (HBV [4]; 3TC 10 μM): 100
HBs antigen in the culture supernatant (HBV [5]): constant whatever the dose and equal to the non-treated control
